{
  "source": "paper PMC7759271",
  "about": "(Cannabis and Cannabinoid Research, 2020)",
  "key": {"hTRPA1": {"target": "T1, hTRPA1 (Homo sapiens, UniProt O75762)", "T1 construct": "gene TRPA1", "T1 sequence (O75762 whole entry)": "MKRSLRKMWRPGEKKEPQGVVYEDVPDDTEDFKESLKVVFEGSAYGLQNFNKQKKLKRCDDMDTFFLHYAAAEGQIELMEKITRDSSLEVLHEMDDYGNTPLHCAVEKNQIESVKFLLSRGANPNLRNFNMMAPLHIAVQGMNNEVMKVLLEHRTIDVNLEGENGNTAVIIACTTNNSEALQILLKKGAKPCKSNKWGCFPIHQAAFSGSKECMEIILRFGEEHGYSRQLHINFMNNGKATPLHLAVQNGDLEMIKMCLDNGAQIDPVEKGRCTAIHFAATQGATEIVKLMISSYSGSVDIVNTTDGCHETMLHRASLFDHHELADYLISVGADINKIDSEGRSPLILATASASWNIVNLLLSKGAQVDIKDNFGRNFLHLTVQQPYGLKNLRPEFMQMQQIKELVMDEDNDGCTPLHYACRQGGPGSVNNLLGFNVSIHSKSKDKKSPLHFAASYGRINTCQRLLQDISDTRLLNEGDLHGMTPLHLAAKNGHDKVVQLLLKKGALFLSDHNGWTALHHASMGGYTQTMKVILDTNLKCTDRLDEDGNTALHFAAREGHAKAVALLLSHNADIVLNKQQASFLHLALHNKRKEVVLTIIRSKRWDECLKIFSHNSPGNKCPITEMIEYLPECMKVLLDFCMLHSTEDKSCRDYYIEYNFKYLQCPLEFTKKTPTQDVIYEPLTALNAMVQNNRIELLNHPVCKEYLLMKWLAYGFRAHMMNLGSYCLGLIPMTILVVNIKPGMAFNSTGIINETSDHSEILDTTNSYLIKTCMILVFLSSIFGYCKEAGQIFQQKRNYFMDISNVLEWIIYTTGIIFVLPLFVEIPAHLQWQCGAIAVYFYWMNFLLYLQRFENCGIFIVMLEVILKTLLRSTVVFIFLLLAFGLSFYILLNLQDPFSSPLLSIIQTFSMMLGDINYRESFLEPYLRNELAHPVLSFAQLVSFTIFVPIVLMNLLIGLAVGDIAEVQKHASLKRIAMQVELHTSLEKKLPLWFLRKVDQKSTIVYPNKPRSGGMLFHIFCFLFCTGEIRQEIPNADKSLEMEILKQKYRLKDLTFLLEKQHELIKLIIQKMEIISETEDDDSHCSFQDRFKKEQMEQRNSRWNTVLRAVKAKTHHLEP", "assay": "intracellular calcium fluorescence assay (Calcium […] dye, FlexStation […])", "format": "cell-based"}, "hTRPV1": {"target": "T2, hTRPV1 (Homo sapiens, UniProt Q8NER1)", "T2 construct": "gene TRPV1", "T2 sequence (Q8NER1 whole entry)": "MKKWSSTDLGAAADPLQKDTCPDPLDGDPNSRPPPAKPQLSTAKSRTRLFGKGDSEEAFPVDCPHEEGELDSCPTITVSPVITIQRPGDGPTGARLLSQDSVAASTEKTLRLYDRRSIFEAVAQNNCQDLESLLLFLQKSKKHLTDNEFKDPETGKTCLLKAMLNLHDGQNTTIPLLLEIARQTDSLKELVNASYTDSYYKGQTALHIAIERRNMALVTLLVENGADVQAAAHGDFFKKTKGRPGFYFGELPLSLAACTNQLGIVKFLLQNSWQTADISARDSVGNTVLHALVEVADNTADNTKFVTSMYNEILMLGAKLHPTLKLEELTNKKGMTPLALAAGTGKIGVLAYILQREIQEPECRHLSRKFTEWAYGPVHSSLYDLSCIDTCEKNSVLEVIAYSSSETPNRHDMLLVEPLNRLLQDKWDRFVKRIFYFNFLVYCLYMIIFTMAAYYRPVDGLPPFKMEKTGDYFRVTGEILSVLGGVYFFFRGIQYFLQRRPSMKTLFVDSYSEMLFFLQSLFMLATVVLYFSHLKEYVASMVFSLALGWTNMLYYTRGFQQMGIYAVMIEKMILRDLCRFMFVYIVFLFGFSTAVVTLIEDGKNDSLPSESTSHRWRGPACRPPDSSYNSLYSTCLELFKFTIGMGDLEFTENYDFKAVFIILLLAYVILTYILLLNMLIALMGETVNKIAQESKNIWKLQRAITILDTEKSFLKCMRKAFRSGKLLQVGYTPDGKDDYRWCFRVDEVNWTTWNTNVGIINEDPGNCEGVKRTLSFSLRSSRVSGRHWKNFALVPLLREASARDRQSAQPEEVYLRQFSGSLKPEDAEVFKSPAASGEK", "assay": "intracellular calcium fluorescence assay (Calcium […] dye, FlexStation […])", "format": "cell-based"}},
  "data": [
    {"smiles": "O=CC=Cc1ccccc1", "note": "[cinnamaldehyde]", "values": [
      {"measurement": "EC50", "setting": "hTRPA1", "value": 12, "unit": "µM"}
    ]},
    {"smiles": "CCCCC/C=C\\C/C=C\\C/C=C\\C/C=C\\CCCC(=O)NCCO", "note": "[anandamide]", "values": [
      {"measurement": "EC50", "setting": "hTRPV1", "value": 4.3, "unit": "µM"}
    ]},
    {"smiles": "CCCCCc1cc(O)c2c(c1)OC(C)(C)[C@@H]1CCC(C)=C[C@@H]21", "note": "[Δ9-tetrahydrocannabinol]", "values": [
      {"measurement": "EC50", "setting": "hTRPA1", "value": 9, "unit": "µM"}
    ]},
    {"smiles": "CCCCC/C=C\\C/C=C\\C/C=C\\C/C=C\\CCCC(=O)OC(CO)CO", "note": "[2-arachidonoylglycerol]", "values": [
      {"measurement": "EC50", "setting": "hTRPA1", "value": 10, "unit": "µM"}
    ]}
  ]
}
